Measured values from US4929751A, “Vinyl tricarbonyl compounds and methods of making the same” (Yale University, priority 1987, dated 1990).
Where two headings read alike, the source gives them in different places.

Legend:
Type in all cases: cell-based
[1] = test system: PS cell lines; test: disease category selectivity
Excerpt: (§1) As described below, the data in Table 1 serve to display the testing results on disease category selectivity in a bar graph format. Bars projecting to the right of the reference (vertical line of asterisks) indicate greater than average sensitivity to the test compound. Each bar represents one power of ten in sensitivity, so that the results for OVCAR-5 (ovarian tumor) indicate a remarkable […] increase in sensitivity over the reference test.
(§2) Table 1 reports and illustrates the results obtained by testing t-butyl 2,3-dioxo-pent-4-enoate hydrate. The concentration of this compound found to inhibit the growth of each cell line listed under "CELL" by 50% is reported under "LOG(IC50)" as the logarithm of the concentration. The units of concentration are either molarity in which case an "M" is shown in parentheses next to the LOG(IC50) label, or micrograms per ml, in which case a "W" (for weight) is shown in parenthesis. The cell line names are grouped by disease type and the disease type names are listed on the far left.
(§3) The graph on the right depicts the data on the left in a format called a "MEAN GRAPH" which is designed to aid in the identification of differential growth inhibition. […] The interest in using this concept of differential growth inhibition as a criterion of activity in the screening system is to encourage the discovery of new types of anticancer agents having greater tissue specificity than cancer chemotherapeutic agents in use today.
(§4) The idea for the Mean Graph resulted from trying to detect differential growth inhibition in a bar graph format Experimentation led to a graph centered at the arithmetic mean (ML) of the logarithm of the IC50'a of all the cell line responses measured for a compound. The Mean Graph is constructed around a vertical reference (indicating ML) by projecting bars to the right or to the left. […] The lengths of the bars are proportional to the differences between the logarithms of the specific cell line IC50's and the overall mean value ML. These lengths represent differences in logarithms which are equivalent to the ratios of the specific IC50's to the geometric mean of all the IC50's. Therefore, a useful property of the Mean Graph format is the ability to compare patterns derived from IC50's measured in different units, e.g, micrograms per ml and molarity. The units cancel in the division process.
(§5) Differential growth inhibition is depicted as a bar projecting some distance to the right of ML. A bar projecting three log units to the right of ML, for example, would reflect a cellular sensitivity 1000 times greater than ML. While any degree of sensitivity greater than ML might theoretically be considered differential growth inhibition, in practice one must consider the experimental error in the measurement and at what point the degree of differential growth inhibition becomes meaningful in biological terms. The three values listed a the bottom of the graph provide the value of ML as "AVE LOG(IC50)", the greatest difference from ML as "DELTA" and the difference between the least sensitive cell line and the most sensitive cell line as the "RANGE".

[2] = test system: colon cell lines; test: disease category selectivity
Excerpt: as §1, §2, §3, §4, §5

[3] = test system: resistant breast cancer cell lines; test: disease category selectivity; conditions: RESISTB
Excerpt: as §1, §2, §3, §4, §5

[4] = test system: ovarian cell lines; test: disease category selectivity
Excerpt: as §1, §2, §3, §4, §5

[5] = test system: nonsmall cell lung cancer cell lines; test: disease category selectivity; conditions: NSCLC
Excerpt: as §1, §2, §3, §4, §5

[6] = test system: small cell lung cancer cell lines; test: disease category selectivity; conditions: SCLC
Excerpt: as §1, §2, §3, §4, §5

[7] = test system: RESISTL (resistant lung cancer) cell lines; test: disease category selectivity
Excerpt: as §1, §2, §3, §4, §5

[8] = test system: melanoma cell lines; test: disease category selectivity; conditions: MEL
Excerpt: as §1, §2, §3, §4, §5

[9] = test system: central nervous system cell lines; test: disease category selectivity; conditions: CNS
Excerpt: as §1, §2, §3, §4, §5

[10] = test system: breast cell lines; test: disease category selectivity
Excerpt: as §1, §2, §3, §4, §5

[11] = test system: leukemia cell lines; test: disease category selectivity; conditions: LEUK
Excerpt: as §1, §2, §3, §4, §5

[12] = test system: renal cell lines; test: disease category selectivity
Excerpt: as §1, §2, §3, §4, §5

[13] = test system: MOLT-4 (LEU); test: growth inhibition of tumor cell line; conditions: Homo sapiens, status R (not acceptable test)
Excerpt: (§6) t-Butyl 2,3-dioxo-pent-4-enoate hydrate (A) was contacted with various cell lines as indicated on Table 1 hereinbelow in the column designated as "CELL" or "TUMOR". […]
as §2

[14] = test system: OVCAR-8 (ovarian); test: growth inhibition of tumor cell line; conditions: Homo sapiens
Excerpt: as §6, §2

[15] = test system: SNB-75 (central nervous system); test: growth inhibition of tumor cell line; conditions: Homo sapiens
Excerpt: as §6, §2

[16] = test system: H524 (small cell lung cancer); test: growth inhibition of tumor cell line; conditions: Homo sapiens, NCI-H524
Excerpt: as §6, §2

[17] = test system: HCC-2998 (colon); test: growth inhibition of tumor cell line; conditions: Homo sapiens
Excerpt: as §6, §2

[18] = test system: CAKI-1 (renal); test: growth inhibition of tumor cell line; conditions: Homo sapiens
Excerpt: as §6, §2

[19] = test system: H522 (nonsmall cell lung cancer); test: growth inhibition of tumor cell line; conditions: Homo sapiens, NCI-H522
Excerpt: as §6, §2

[20] = test system: SK-MES-1 (nonsmall cell lung cancer); test: growth inhibition of tumor cell line; conditions: Homo sapiens, SK-MES1, logarithm of the concentration inhibiting growth by 50%
Excerpt: as §6, §2

[21] = test system: LOX (melanoma); test: growth inhibition of tumor cell line
Excerpt: as §6, §2

[22] = mean LOG(IC50) of category, 1 cell line, read-out: MEAN CAT (converted)
[23] = mean LOG(IC50) of category, 4 cell lines, read-out: MEAN CAT (converted)
[24] = mean LOG(IC50) of category, 5 cell lines, read-out: MEAN CAT (converted)
[25] = logarithm of the concentration inhibiting growth by 50%, read-out: LOG(IC50) (converted)

IC50 [1, 22]: 100 µM | IC50 [2, 23]: 63.1 µM | IC50 [3, 22]: 100 µM | IC50 [4, 24]: 50.1 µM | IC50 ([5]; mean LOG(IC50) of category, 10 cell lines, read-out: MEAN CAT (converted)): 79.4 µM | IC50 [6, 24]: 79.4 µM | IC50 [7, 22]: 126 µM | IC50 [8, 24]: 79.4 µM | IC50 [9, 23]: 100 µM | IC50 [10, 22]: 100 µM | IC50 ([11]; mean LOG(IC50) of category, 2 cell lines, read-out: MEAN CAT (converted)): 31.6 µM | IC50 ([12]; mean LOG(IC50) of category, 3 cell lines, read-out: MEAN CAT (converted)): 79.4 µM | IC90 [13]: 244 µM | IC90 [14]: 263 µM | IC50 [14, 25]: 126 µM | IC50 ([14]; read-out: IC-50 MEAN): 114 µM | IC90 [15]: 231 µM | IC50 [15, 25]: 79.4 µM | IC50 ([15]; read-out: IC-50 MEAN): 81.5 µM | IC90 [16]: 189 µM | IC50 ([16]; H524, logarithm of the concentration inhibiting growth by 50%, read-out: LOG(IC50) (converted)): 39.8 µM | IC50 ([16]; read-out: IC-50 MEAN): 40.8 µM | IC50 ([17]; HCC 2998, HCC2998, logarithm of the concentration inhibiting growth by 50%, read-out: LOG(IC50)): > 50.1 µM | IC50 ([17]; HCC-2998, read-out: IC-50 MEAN): 52 µM | IC90 [18]: 202 µM | IC50 [18, 25]: 50.1 µM | IC50 ([18]; read-out: IC-50 MEAN): 64.9 µM | IC50 ([19]; H522, logarithm of the concentration inhibiting growth by 50%, read-out: LOG(IC50) (converted)): 15.8 µM | IC50 ([19]; read-out: IC-50 MEAN): 14.3 µM | IC50 [20]: > 25.1 µM | IC90 [21]: 258 µM | IC50 [21, 25]: 100 µM | IC50 ([21]; read-out: IC-50 MEAN): 102 µM
Compound: C=CC(=O)C(O)(O)C(=O)OC(C)(C)C [t-butyl 2,3-dioxo-pent-4-enoate hydrate]
DIFF CAT ([1]; difference from mean): 0.1 | DIFF CAT ([2]; difference from mean): -0.1 | DIFF CAT ([3]; difference from mean): 0.1 | DIFF CAT ([4]; difference from mean): -0.2 | DIFF CAT ([5]; difference from mean): 0 | DIFF CAT ([6]; difference from mean): 0 | DIFF CAT ([7]; difference from mean): 0.2 | DIFF CAT ([8]; difference from mean): 0 | DIFF CAT ([9]; difference from mean): 0.2 | DIFF CAT ([10]; difference from mean): 0.1 | DIFF CAT ([11]; difference from mean): -0.4 | DIFF CAT ([12]; difference from mean): 0.1
